Experimental data from US11352604B2, “Method of making cardiomyocytes from human pluripotent cells” (Wisconsin Alumni Research Foundation, priority 2016, dated 2022).

Columns and labels:
Format in all cases: cell-based, human
[1] = test system: DBT, ATP5F1, SLC25A4; assay: Quantitative immunostaining of upregulated metabolic proteins; conditions: hPSC-CMs from pI:C-treated vs untreated progenitors
Protocol: (§1) For internal antigens, cells were rinsed of media two times in PBS, fixed for 10 minutes in 4% paraformaldehyde at RT, rinsed three times again in PBS, then blocked for 1 hour at room temperature (RT) in Licor blocking buffer containing 0.2% Triton x-100 (Sigma). Blocking solution was aspirated and antibodies added overnight at 4° C. in fresh blocking/permeabilization solution. Antibodies used were mouse cardiac troponin T (Thermo Fisher Scientific, 1:200), rabbit WT1 (Abcam 1:200), mouse smooth muscle myosin heavy chain (Abcam, 1:200), goat Jag1 c-terminal domain (1:200 Abcam), MMP1 (Abcam, 1:200), mouse cardiac actin (Sigma, 1:200), rabbit SLC25A4 (Proteintech, 1:100), rabbit DBT (Proteintech, 1:100), rabbit ATP5F1 (Proteintech, 1:100), rabbit Irx4 (Abcam, 1:200), goat nkx2.5 (Santa Cruz, 1:50), mouse connexin 40 (Thermo Fisher Scientific, 1:200), and fibroblast-specific protein (Abcam, 1:100). After primary and secondary antibodies, cells were rinsed two times in PBS with 0.2% triton x-100. Donkey secondaries conjugated to Alexa Fluor dyes were used at 1:1000 and incubated at RT for 1 h. DAPI or Hoechst was used to visualize nuclei. Cells were imaged either on an EVOS system in wells (Thermo Fisher Scientific) or a Leica confocal microscope in cover glass or ibidi 8-well microslides. Image J was used to quantify cell area by outer boundaries of cTnT staining.

[2] = test system: hPSC-CMs; assay: Optical action potential measurement (RH237)
Protocol: After hPSC-CM dissociation, day 30 to 60 lactate-purified hPSC-CMs from the 19-9-11 cell line were plated as 80 μL drops on areas of cover glass previously coated in drops of Synthemax® working solution of 80 μL (Corning) in the K20/2 dissociation and replating technique described above. After at least two days in K2 medium, the fast-equilibrating voltage-sensitive dye RH237 at 1 μM was added and live cells imaged in the cover glass in a Leica confocal microscope. Video files of individual cells were taken and filtered with the 50th FIR filter at a cutoff frequency of 128 Hz. The resulting action potentials were analyzed for rise time and voltage velocity in MATLAB. Individual cells were considered as replicates for statistical purposes and came from 4 cell preparations.

[3] = test system: hPSC-CMs; assay: Cardiomyocyte yield and purity in GiWi differentiation; conditions: day 30, pI:C alone vs untreated
Protocol: To differentiate cardiomyocytes from hPSCs, the small molecule temporal modulation of the Wnt pathway (GiWi) monolayer protocol was used essentially as previously described (Lian et al., 2012). Human embryonic or induced pluripotent stem cells were dissociated with Versene (Thermo Fisher Scientific) for 6 minutes at 37° C., pipetted up and down 40 times, counted with a hemocytometer, spun down at 100×g for 5 minutes, and resuspended and seeded for differentiation at 1.5 million cells per well in 6 well plates or 0.4 million per well in 12 well plates in mTeSR® on stem-cell verified Matrigel® (WiCell) containing 10 μM Y-27632 ROCK-inhibitor (Tocris). After four days in mTeSR® (WiCell), at which point cells grew to 100 percent confluence, medium was switched to RPMI supplemented with B27 supplement not containing insulin (Thermo Fisher Scientific) and containing 12 μM of the Wnt agonist CHIR99021 (Tocris) for exactly 24 hours. Media was then changed to RPMI supplemented with B27 not containing insulin for exactly 48 hours. Then medium was then switched at day 3 to RPMI supplemented with B27 not containing insulin and containing 5 μM IWP2 (Tocris). At day 5, media was switched to RPMI supplemented with B27 not containing insulin for two days. At day 7 and every three days afterward, medium was replaced with RPMI supplemented with B27 containing insulin (Thermo Fisher Scientific). […]

[4] = test system: hPSC-CMs; assay: Immunofluorescence cell size (area of cTnT staining); conditions: day 30, pI:C-treated vs untreated progenitors
Protocol: as §1

[5] = test system: hPSC-CMs; assay: Seahorse oxygen consumption rate; conditions: cardiomyocytes from treated vs untreated progenitors
Protocol: After hPSC-CM dissociation of day 40-70 lactate-purified hPSC-CMs from the H9 cTnT-GFP reporter cell line, 25,000 cells per well were replated into Synthemax®-coated wells of Seahorse XF96 V3 PS cell culture plates (Agilent). Plates were analyzed for basal and maximal oxygen consumption rate with a Seahorse XF cell mito stress kit according to the manufacturer's instructions (Agilent) using concentrations of 1 μM oligomycin, 2 μM FCCP, and 0.5 μM Rotenone/antimycin A. Purity was determined by dissociating seahorse wells after analysis and doing live cell flow cytometry for cTnT-GFP. To directly compare data between plate runs/biological replicates, the fold change between hPSC-CMs from pI:C− and pI:C+ progenitors was computed for each sample's maximal and basal oxygen consumption rate normalized to total protein estimated after cell lysis in EBC buffer. Log2 of the fold changes was tested for significance in a one-sample t test against a null hypothesis of 0.

[6] = test system: hPSC-CMs; assay: Transmission electron microscopy of sarcomeres; conditions: day 30 hPSC-CMs from pI:C-treated progenitors
Text: Differentiated H9-cTnT-GFP line hPSC-CMs at day 30 were washed twice with sodium phosphate buffer and fixed and maintained in sodium phosphate buffer with 4% paraformaldehyde (PFA) until pelleting and processing for TEM as previously described (Raval et al., 2015).

[7] = test system: hPSC-derived cardiac progenitors and hPSC-CMs; assay: RT-qPCR gene expression in progenitors or cardiomyocytes
Protocol: Frozen cell pellets from progenitors or cardiomyocytes in the 19-9-11 iPS cell line were thawed and RNA isolated using RNeasy spin columns with on-column DNase treatment according to the manufacturer's instructions (Qiagen). 500 ng of isolated RNA was used as template for reverse transcription using Biorad iScript RT supermix according to the manufacturer's instructions. 2.5 ng of derived cDNA was then used as template in qPCR with Taqman® primers bearing FAM-MGB dyes for genes of interest in a 20 μL reaction with Taqman® universal PCR supermix and the manufacturer's recommended cycling conditions (Thermo Fisher Scientific).

[8] = primed vs untreated cardiac progenitors, qPCR

With polyinosinic-polycytidylic acid [pI:C] the “expression of DBT, ATP5F1 and SLC25A4” value [1] was “increased expression”, the “optical upstroke velocity (rise time)” value ([2]; day 30 hPSC-CMs from pI:C-treated vs untreated progenitors) was “significantly faster” and the APD80 ([2]; spontaneous action potentials) was “decrease”. For the same substance, the yield of cardiomyocytes [3] was “more than double the yield”, the hPSC-CM cell size [4] was “twice as large” and the “basal oxygen consumption rate” value [5] was “approximately 2 fold”. For the same substance, the “maximal oxygen consumption rate” value [5] was “approximately 2 fold”, the sarcomere ultrastructure [6] was “longer, more regular and compact sarcomeres that contained I-bands” and the myofilament gene expression ([7]; day 9 cells, treated vs untreated progenitors) was “increased expression of all myofilament genes studied”. For the same substance, the “expression of cardiomyocyte maturation genes such as cTnI and αMHC” value ([7]; day 20 pPSC-CM, pI:C vs untreated) was “increased the expression levels”, the “expression of cardiac fibroblast genes (Thy1, MMP1, Collagen 1a, WT1)” value ([7]; pI:C treatment vs untreated) was “downregulated” and the “levels of type I HDAC1-3” value [7, 8] was “unchanged to unregulated levels”. For the same substance, the “levels of type II histone deacetylases (HDAC4-7)” value [7, 8] was “universally lower levels”.
